Paper PMC5579575, “Study of Alzheimer’s Disease-Related Biophysical Kinetics with a Microslit-Embedded Cantilever Sensor in a Liquid Environment” (Sensors (Basel, Switzerland), 2017)

Key:
[1] = tested on: monoclonal 6E10 antibody (mAb); assay: Quantitative detection of Aβ42 with mAb-immobilized slit cantilever (resonant frequency shift); type: binding; details: for frequency shift (average): in 10 mM PBS, 30 min, rinsed with PBS, mAb 10 μg/mL immobilized
Protocol: To detect the target molecules, a commercial monoclonal 6E10 antibody (mAb, 10 μg/mL, Covance, Princeton, NJ, USA) was immobilized on the cantilever surfaces by using a conventional coupling method. The mAb is known to include a specific binding ligand with the first 1–16 sequence of human Aβ peptides. Prior to antibody immobilization, the slit cantilever with a 50 nm thick Au surface was cleaned with piranha solution (a 4:1 ratio of H2SO4 to H2O2) and rinsed with deionized water (DI). In addition, 10 mM of 11-Mercaptoundecanoic acid (11-MUC, Sigma-Aldrich, St. Louis, MO, USA) diluted in ethanol was treated for 12 h on the Au surface of the sensor to establish a self-assembled monolayer. The MUC-modified slit cantilever was immersed in a mixture of 1-ethyl-3-(3-dimethylaminopropyl) carbodiimide (EDC, 80 mM, Sigma-Aldrich) and N-hydroxysuccinimide (NHS, 20 mM, Sigma-Aldrich) dissolved for 2 h in 10 mM of phosphate-buffered solution (PBS, pH = 7.4). Then, mAb, which was diluted as 10 µg/mL in 10 mM PBS, was immobilized on the functionalized surface of the slit cantilever for 2 h, followed by rinsing with PBS and DI.
To evaluate the sensing performance of the slit cantilever in a liquid environment, quantification of the synthetic Aβ42 peptide, which has an identical sequence of 42-residue amino acids associated with human AD, was investigated in a physiological-level concentration. Prior to conducting biomolecular interactions, a drift of resonant frequency was verified and stabilized until steady state (Figure S2). The resonance responses reached its steady state within 200 min and the frequency maintained for 60 min with fluctuations up to 4 Hz which can be regarded as a noise level. Detection of target molecules with the slit cantilever is based on the capturing by immobilized mAb on the cantilever beam. It occurs in the measurement of the frequency shift due to mass loading on the surface. Firstly, the specific antibody (mAb) of 10 μg/mL was chemically immobilized on the 60 μm × 280 μm dimension of the Au surface (50 nm thickness) of the slit cantilever. The Aβ42 peptide was diluted with a ten-fold difference from 10 pg/mL to 1 μg/mL in 10 mM PBS. The prepared Aβ42 solution was individually introduced into the slit cantilever for 30 min, followed by rinsing with PBS. The changes of resonant frequencies in PBS were measured before and after the recognition interactions between mAb and target analytes. The resonant frequency decreased according to the concentration increment of target analytes owing to mass adsorption of Aβ42 to the specific binding site of the immobilized mAb. The average values of the frequency shifts were measured as −15.5, −56.5, −119.5, −472.5, −774 and −799 Hz for the concentrations from 10 pg/mL to 1 μg/mL, respectively. As noted earlier, these responses were satisfied with at least three-sigma significance in terms of the signal-to-noise ratio of the sensors.

[2] = target: monoclonal 6E10 antibody (mAb); assay: Binding affinity (KD) of Aβ42-mAb by Langmuir isotherm fit of slit cantilever responses; details: global fit of Langmuir isotherm (χ^2 = 0.010958), 1:1 binding; fractional saturation vs. Aβ concentration; 1 μg/mL assumed fully saturated; PBS; read-out: equilibrium dissociation constant (KD)
Protocol: To detect the target molecules, a commercial monoclonal 6E10 antibody (mAb, 10 μg/mL, Covance, Princeton, NJ, USA) was immobilized on the cantilever surfaces by using a conventional coupling method. The mAb is known to include a specific binding ligand with the first 1–16 sequence of human Aβ peptides. Prior to antibody immobilization, the slit cantilever with a 50 nm thick Au surface was cleaned with piranha solution (a 4:1 ratio of H2SO4 to H2O2) and rinsed with deionized water (DI). In addition, 10 mM of 11-Mercaptoundecanoic acid (11-MUC, Sigma-Aldrich, St. Louis, MO, USA) diluted in ethanol was treated for 12 h on the Au surface of the sensor to establish a self-assembled monolayer. […]
To evaluate the sensing performance of the slit cantilever in a liquid environment, quantification of the synthetic Aβ42 peptide, which has an identical sequence of 42-residue amino acids associated with human AD, was investigated in a physiological-level concentration. […] The changes of resonant frequencies in PBS were measured before and after the recognition interactions between mAb and target analytes. […] The average values of the frequency shifts were measured as −15.5, −56.5, −119.5, −472.5, −774 and −799 Hz for the concentrations from 10 pg/mL to 1 μg/mL, respectively. […]

Aβ peptides = details: conventional surface plasmon resonance (SPR), ref [27]; cited from earlier work
Protocol: Meanwhile, Equation (5) predicts the hyperbolic plot of fractional saturation ([AB]/[B]) vs. Aβ concentration. This curve follows isotherms for relatively obscure thermodynamic reasons. […] The acquired value is consistent with those of previous studies (1.2 nM) using conventional surface ...

## Aβ42: synthetic Aβ42 peptide, which has an identical sequence of 42-residue amino acids associated with human AD (Sigma-Aldrich)
[1]; 10 pg/mL Aβ42
  frequency shift (average): −15.5 Hz
[1]; 100 pg/mL Aβ42 (ten-fold dilution series 10 pg/mL to 1 μg/mL)
  frequency shift (average): −56.5 Hz
[1]; 1 ng/mL Aβ42 (ten-fold dilution series 10 pg/mL to 1 μg/mL)
  frequency shift (average): −119.5 Hz
[1]; 10 ng/mL Aβ42 (ten-fold dilution series 10 pg/mL to 1 μg/mL)
  frequency shift (average): −472.5 Hz
[1]; 100 ng/mL Aβ42 (ten-fold dilution series 10 pg/mL to 1 μg/mL)
  frequency shift (average): −774 Hz
[1]; 1 μg/mL Aβ42
  frequency shift (average): −799 Hz
[1]; dynamic range 100 pg/mL to 100 ng/mL Aβ42, logarithmic concentration
  sensitivity: 330 Hz/decade
[2]
  Kd: 1.75 nM
Aβ peptides
  Kd: 1.2 nM

## PSA: prostate cancer antigen (PSA) protein introduced as a control experiment
[1]; PSA protein as control experiment, mAb-immobilized cantilever
  resonant frequency response, negative control: no obvious responses were observed
